These are literature values, as cited in patent US7223553B2, “Immunoassays for everolimus” (priority 2004, dated 2007).

The conditions of data set [1]: kidney transplantation; consistent with efficacy while minimizing adverse effects.
For data set [2] the following is noted: heart transplant patients, first year post-transplant.

Read-outs that look alike come from different tables or passages of the source.

In the case of “40-O-(2-hydroxyethyl)-rapamycin [Everolimus]”, the Therapeutic concentration in data set [1] was 3 to 15 ng/mL. In addition, the Everolimus trough levels in data set [2] (1.5 mg/day) is 5.2 ± 3.8 ng/mL; in data set [2] (3 mg/day) it was 9.4 ± 6.3 ng/mL.
